Source: patent US6967102B1, “Nitric oxide manipulation of muscle satellite cell activation” (University of Manitoba, priority 1999, dated 2005)
Entries after “also recorded” stand apart in the source; their conditions may differ.

Columns and labels:
[1] = tested on: satellite cells; assay: Isolated single muscle fiber culture, BrdU incorporation by satellite cells (activation); format: cell-based, C57 mice
From the text: (§1) Flexor digitorum brevis (FDB) muscles from normal C57 mice were dissected from the foot, and connective tissue, vessels and nerves were cleaned off the muscle. Following a 3 hr collagenase digestion (0.2% in DMEM), and viewed on a dissecting microscope, the muscle was separated into three bundles and the overlying connective tissue was peeled off the bundles using sharp forceps. The individual fibers were then teased off the remnant tendon and into smaller bundles. Bundles were gently triturated to separate single fibers using a wide mouth glass pipette with a polished end. The fibers were plated onto vitrogen-coated 35 mm dishes and grown in 1.5 ml of DMEM+10% Horse Serum (HS)+1% antimyotics+0.1% gentamycin.
Live fibers exclude Ethidium bromide (EtBr), but 5 minutes after adding a myotoxin called marcaine (Bischoff R. (1990b). Development 109:943–952) to the medium, nuclei in fibers (and not in satellite cells) are fluorescent for EtBr. Hypercontraction occurs another 5–10 min later. Satellite cells exclude EtBr but take up an indicator of live cells, fluoresceine diacetate (FDA). Without this characterization, observations on satellite cells in a culture could include artefacts from membrane damage that initiates activation differently than any treatment under study. Satellite cells on our intact fibers were also quiescent after isolation. […] This conclusion is critical to any studies that propose to examine activation signals and their regulation.
Experimental Protocol: Fibers are isolated from flexor digitorum brevis (FDB) muscles on the plantar foot of 3 mice, then digested in collagenase (0.2% for 3 hr) and separated under a stereo microscope into small bundles (Yablonka-Reuveni, Z. and Rivera AJ. (1994). Dev. Biol. 164:588–603). […]
Fibers are incubated in 20% serum replacement medium (CSR; Yablonka-Reuveni, Z, and Rivera A J. (1994). Dev. Biol. 164:588–603). […] Activation is measured by counting labelled satellite cells per fiber (150–250 fibers/dish). […]

[2] = tested on: satellite cells; assay: Cell yield time course 0–30 min after crush injury of right tibialis anterior, normal mice; format: in vivo, normal mice (C57BL/6); details: L-Arg 225 mg/kg ip 30 min before crush; 0–30 min
[3] = Muscle weight to body weight (edema) and haemorrhage after crush injury, normal mice; format: in vivo, normal mice (C57BL/6); details: ip treatment 30 min before crush; 0–30 min after injury
[4] = tested on: dystrophic muscle; assay: Central nucleation index (CNI) in LTA and diaphragm of treated mdx mice; format: in vivo; details: mdx mice treated from 4–8 weeks of age; for CNI (central nucleation index) in DIA: diaphragm; for CNI (central nucleation index) in LTA: left tibialis anterior
From the text: A study of 4 groups (n≈10/group) of mdx dystrophic mice treated with placebo, deflazacort, deflazacort plus L-NAME (a NOS inhibitor), or deflazacort plus L-arginine (a […]). Deflazacort was given by daily injection (ip) and L-NAME and L-arginine were given systemically in the drinking water.
When a normal peripherally nucleated myofiber degenerates, muscle precursor cells proliferate to varying extents (Grounds Md., McGeachie J K. (1989). Exp. Cell Res 180:429–439) and fuse to form centrally nucleated myotubes. These myotubes grow, or even hypertrophy compared to the original distribution of fiber size in that muscle, and span the injured area, (Anderson J E, Ovalle W K, Bressler B H. (1987). Anat. Rec. 219:243–257; Anderson J E, Bressler B H, Ovalle W K. (1988). J. Muscle Res. Cell Motil. 9:499–515; Ontell M, Feng K C, Klueber K, Dunn R F, Taylor F. (1984). Anat. Rec. 208:159 174) but remain centrally nucleated; thus the central nucleation index (CNI) is a useful measure of accumulated damage and repair. (Karpati G, Carpenter S. (1988). Muscle Nerve. 11:795–803). The CNI is a measurement well known in the art (see Karpati and Carpenter. 1988. Muscle Nerve. 11:795–803 and Anderson et al. 1996. Muscle Nerve. 19:1576–1585).
CNI is the proportion of all fibers in a section or a muscle which show a centrally-located nucleus (often given as a percentage). Since muscular dystrophy causes ongoing damage of muscle fibers, the successful repair of those fibers is marked by centrally-nucleated fibers which accumulate as a proportion of total fibers. Unsuccessful repair can be viewed as a loss of fibers in a section of a whole muscle; this too can produce a change in the ratio of centrally nucleated to total number of fibers (expressed as a percentage).
In this experiment, muscle tissues are collected from the treated animals. LTA and diaphragm muscles were sectioned, and counts of fibers with central nuclei and fibers with peripheral nuclei were performed. The largest diameter of the muscle section in each of the two sections of each muscle was used for counting, for 10 mice per group (2 muscles per mouse).
This is similar for the tibialis anterior muscle (LTA) and diaphragm at the age shown in the graph (which is 8 weeks of age) and is reliably used to monitor the progressive effect of dystrophic fiber injury on a muscle over time as the disease progresses. CNI will increase with age in the mdx mice (until the plateau discussed above). Mice are treated from 4–8 weeks of age with placebo, Deflazacort, D+L-NAME or D+L-Arginine.

[5] = tested on: muscle precursor cells; details: deflazacort treatment on mdx mice; cited from earlier work
[6] = tested on: muscle fibers; assay: Marcaine / ethidium bromide staining and hypercontraction of isolated muscle fibers; format: cell-based, C57 mice
From the text: as §1
Marcaine, an anaesthetic, was previously used to kill live fibers by adding it to a dish for 20–30 minutes (Cornelison, D. D. W., and Wold, B. J. (1997). Dev. Biol. 191:270–283) but the exact time of fiber death was never identified. Ethidium bromide (EtBr) is a fluorescent chemical which intercalates into the DNA of dead cells but is not taken up into live fibers. Media was mostly decanted from freshly plated fibers and the fibers were located using a microscope. 2–3 drops of either EtBr (2.5 μg/ml) in DMEM or Marcaine (0.05%)+EtBr (2.5 μg/ml) in DMEM were then added to the dish under continuous observation. Fiber hypercontraction was observed using a phase lens and the time course of EtBr nuclear staining was observed under UV light using a red filter. Photographs (ASA400 Fuji Colour Film) were taken to record staining of live, fixed, EtBr and Marcaine treated fibers and nuclei.

[7] = Marcaine (0.05%)+EtBr (2.5 μg/ml) in DMEM

N=C(N)NCCC[C@H](N)C(=O)O [L-Arg, L-arginine]
concentration showing maximal activation ([1]; L-Arginine 50–1000 nM, initial results): 500 nM | satellite cell activation (marked by DNA synthesis) ([1]; single normal fibers, L-arginine at various concentrations, 48 hr): stimulates activation in a dose-dependent manner | satellite cell migration away from fibers ([1]; single normal fibers, L-arginine, 48 hr): stimulates satellite cell migration away from fibers | RSOL cell counts [2]: unchanged | RTA cell yield time course [2]: rose sharply at 5 min., and also stayed high | muscle weight profile (RTA relative to LTA; muscle weight as proportion of body weight) [3]: little or no change in muscle weight profile

D+L-Arginine
CNI (central nucleation index) in DIA [4]: decrease the CNI of DIA from the level seen with D+L-NAME | CNI (central nucleation index) in LTA [4]: increase in LTA CNI from deflazacort alone; also recorded: still significantly lower than placebo treatment

CC(=O)OCC(=O)[C@@]12N=C(C)O[C@@H]1C[C@H]1[C@@H]3CCC4=CC(=O)C=C[C@]4(C)[C@H]3[C@@H](O)C[C@@]12C [deflazacort]
CNI (central nucleation index) in DIA [4]: significantly lower CNI after deflazacort | CNI (central nucleation index) in LTA [4]: 0.4 | increase in precursor cell proliferation and formation of new muscle fibers [5]: 1.5–2 fold

CCCCN1CCCCC1C(=O)Nc1c(C)cccc1C (stereo not drawn) [Marcaine]
time to EtBr staining of nuclei of live fibers after Marcaine [6, 7]: 60 to 90 s | time to fiber hypercontraction [6, 7]: 5 to 10 min | further time until hypercontraction after nuclei fluoresce ([6]; marcaine added to the medium): 5 to 10 min | time after adding marcaine at which nuclei in fibers are fluorescent for EtBr ([6]; marcaine added to the medium): 5 min
